Legend:
[1] = particle size distribution by laser diffraction (Mastersizer 3000); type: physicochemical; conditions: re-dispersed in 0.2% Tween 20 deionized water
Experimental: Briefly, 10 mg/mL (+)-TBZ or (±)-d6-TBZ recrystallized crystal was re-dispersed in 0.2% Tween 20 deionized water with a rigorous vortex. The microscopy was conducted using the optical microscope Leica DMi8, with 100-fold magnification. The PSD was measured using laser diffraction method, with Mastersizer 3000 (Malvern, UK). Before particle sizing, the 10 mg/mL (+)-TBZ crystal was re-dispersed in 0.2% Tween 20 deionized water and sonicated for ˜10 sec.
Briefly, 10 mg/mL (+)-TBZ recrystallized crystal was re-dispersed in 0.2% Tween 20 deionized water with a rigorous vortex. The microscopy was conducted using the optical microscope Leica DMi8, with 100-fold magnification. The PSD was measured using laser diffraction method, with Mastersizer 3000 (Malvern, UK). Before particle sizing, the 10 mg/mL (+)-TBZ crystal was re-dispersed in 0.2% Tween 20 deionized water and sonicated for ˜10 sec.
Four grams of raw (+)-TBZ crystals were jet milled in a 20 mm milling chamber at room temperature (Micromacinazione, Switzerland). Briefly, the jet mill was connected to high pressure nitrogen for providing the pneumatic forces. The grinding pressure and feeding pressure are set on 2.5 bar and 5 bar, respectively. The feeding rate of raw (+)-TBZ crystal was 1.6 g/m in. The fine (+)-TBZ powder was collected by the cyclone and recovered in a vial. The yield was ˜80%. The PSD was characterized using laser diffraction method, with Mastersizer 3000 (Malvern, UK). Before particle sizing, the 10 mg/mL (+)-TBZ crystal was re-dispersed in 0.2% Tween 20 deionized water and sonicated for ˜10 sec. […]
Four grams of raw cholesterol crystals (Nippon fine chemical, Japan) was jet milled in a 20 mm milling chamber at room temperature (Micromacinazione, Switzerland). The jet mill was connected to high pressure nitrogen for providing the pneumatic forces. The grinding pressure and feeding pressure are set on 2.5 bar and 5 bar, respectively. The feeding rate of raw cholesterol crystal was 1.6 g/m in. The fine CSTR powder was collected by the cyclone and recovered in a vial. The yield was ˜80%. The PSD was characterized using laser diffraction method, with Mastersizer 3000 (Malvern, UK). Before particle sizing, the 10 mg/mL CSTR crystal was re-dispersed in 0.2% Tween 20 deionized water and sonicated for ˜10 sec.
The spray drying was conducted with Mini Spray Dryer B-290, (Buchi, Switzerland). First, 10 grams of raw cholesterol crystal was dissolved in 300 mL isopropanol (IPA) with 35-40° C. heating to obtain a clear solution. The spray drying was conducted at a flow rate of 12.5 ml/min and completed in 2 hours. The fine CSTR particles were collected by the cyclone and recovered in a vial. The yield was about 80%. […] Briefly, 10 mg/mL SPD CSTR was re-dispersed in 0.2% Tween 20 deionized water with a rigorous vortex. The microscopy was conducted using the optical microscope Leica DMi8, with 100-fold magnification. The PSD was characterized using laser diffraction method, with Mastersizer 3000 (Malvern, UK) and the results are shown in Table 12. Before particle sizing, the 10 mg/mL SPD CSTR was re-dispersed in 0.2% Tween 20 deionized water and sonicated for ˜10 sec. […]
4 grams of raw (+)-α-DHTBZ crystals (Wuxi Pharma, China) were jet milled in a 20 mm milling chamber at room temperature (Micromacinazione, Switzerland). Briefly, the jet mill was connected to high pressure nitrogen for providing pneumatic forces, with grinding pressure and feeding pressure set at 4 and 5 bars, respectively. The feeding rate of raw (+)-α-DHTBZ crystals was 1.6 g/m in. Fine milled (+)-α-DHTBZ crystals were collected by the cyclone and recovered in a vial. The yield was ˜80%. The PSD of jet-milled (+)-α-DHTBZ was characterized using laser diffraction method, with Mastersizer 3000 (Malvern, UK). Before particle sizing, the 10 mg jet milled (+)-α-DHTBZ was re-dispersed in 1 mL of 0.2% Tween-20 deionized water and sonicated for ˜10 sec.

[2] = cited from earlier work
solubility in heptane = type: physicochemical; conditions: room temperature
[3] = target: serotonin 5-HT7 receptors (Homo sapiens, UniProt P34969); conditions: serotonin 5-HT7 receptor; read-out: off-target binding affinity to serotonin 5-HT7; cited from earlier work
dopamine D2 = dopamine D2 (Homo sapiens, UniProt P14416); conditions: dopamine D2 receptor; read-out: off-target binding affinity to dopamine D2; cited from earlier work
[4] = listed as 3 g rex (+)-TBZ-1 iii

Sequence of dopamine D2 (P14416 whole entry): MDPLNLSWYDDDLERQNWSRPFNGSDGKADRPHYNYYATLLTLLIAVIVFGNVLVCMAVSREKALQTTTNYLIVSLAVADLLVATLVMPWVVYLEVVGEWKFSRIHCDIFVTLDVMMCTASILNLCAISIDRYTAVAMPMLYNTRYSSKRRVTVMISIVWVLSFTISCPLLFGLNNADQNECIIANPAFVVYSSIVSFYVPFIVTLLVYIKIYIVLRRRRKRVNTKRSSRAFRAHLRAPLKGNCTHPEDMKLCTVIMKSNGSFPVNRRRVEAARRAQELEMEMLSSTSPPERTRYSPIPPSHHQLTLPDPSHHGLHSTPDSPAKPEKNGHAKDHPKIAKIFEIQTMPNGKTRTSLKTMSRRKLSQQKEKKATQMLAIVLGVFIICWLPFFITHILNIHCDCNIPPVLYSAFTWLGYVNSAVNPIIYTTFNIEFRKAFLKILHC
Sequence of serotonin 5-HT7 receptors (P34969 whole entry): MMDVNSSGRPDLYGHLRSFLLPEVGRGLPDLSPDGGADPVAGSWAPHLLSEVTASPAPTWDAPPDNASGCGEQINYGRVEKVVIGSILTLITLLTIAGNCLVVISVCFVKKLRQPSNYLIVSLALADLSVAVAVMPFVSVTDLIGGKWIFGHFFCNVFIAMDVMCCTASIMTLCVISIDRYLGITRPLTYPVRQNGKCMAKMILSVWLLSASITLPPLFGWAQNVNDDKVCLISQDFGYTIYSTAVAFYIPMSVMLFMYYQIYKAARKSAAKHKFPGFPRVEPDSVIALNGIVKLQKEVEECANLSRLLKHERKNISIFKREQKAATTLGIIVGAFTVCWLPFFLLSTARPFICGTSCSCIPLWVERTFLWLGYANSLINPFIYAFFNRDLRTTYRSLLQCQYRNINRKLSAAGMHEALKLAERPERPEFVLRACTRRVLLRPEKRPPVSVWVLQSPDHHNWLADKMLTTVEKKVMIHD

Compound: COc1cc2c(cc1OC)C1CC(=O)C(CC(C)C)CN1CC2 (racemic) [TBZ, 1,3,4,6,7,11b-hexahydro-9,10-dimethoxy-3-(2-methoxylrpopryl)-2H-benzo(a)quinoline-2-one, reference compound]
- D10 (μm) [1]: 4.2 μm
- D50 (μm) [1]: 9.2 μm
- D90 (μm) [1]: 20.1 μm
- oral bioavailability [2]: 17%

Compound: COc1cc2c(cc1OC)C1CC(O)C(CC(C)C)CN1CC2 (single isomer, unassigned; (+)) [(+)-(α)-DHTBZ, [+]-α-dihydrotetrabenazine]
- D10 (μm) [1]: 5 μm
- D50 (μm) [1]: 13 μm
- D90 (μm) [1]: 40 μm

Compound: COc1cc2c(cc1OC)[C@H]1CC(=O)[C@H](CC(C)C)CN1CC2 [(+)-TBZ, (3R,11bR)-tetrabenazine]
- solubility in heptane (solubility in heptane): < 0.4 % by weight
- D10 (μm) ([1]; listed as 3 g rex (+)-TBZ-1 i): 17.3 μm
- D50 (μm) ([1]; listed as 3 g rex (+)-TBZ-1 i): 38.5 μm
- D90 (μm) ([1]; listed as 3 g rex (+)-TBZ-1 i): 75.0 μm
- D10 (μm) ([1]; listed as 3 g rex (+)-TBZ-1 ii): 22.0 μm
- D50 (μm) ([1]; listed as 3 g rex (+)-TBZ-1 ii): 45.9 μm
- D90 (μm) ([1]; listed as 3 g rex (+)-TBZ-1 ii): 85.7 μm
- D10 (μm) [1, 4]: 16.6 μm
- D50 (μm) [1, 4]: 33.7 μm
- D90 (μm) [1, 4]: 60.7 μm
- D10 (μm) ([1]; listed as 12 g rex (+)-TBZ i): 15.9 μm
- D50 (μm) ([1]; listed as 12 g rex (+)-TBZ i): 34.9 μm
- D90 (μm) ([1]; listed as 12 g rex (+)-TBZ i): 65.8 μm
- D10 (μm) ([1]; listed as 12 g rex (+)-TBZ ii): 17.7 μm
- D50 (μm) ([1]; listed as 12 g rex (+)-TBZ ii): 40.8 μm
- D90 (μm) ([1]; listed as 12 g rex (+)-TBZ ii): 80.4 μm
- D10 (μm) ([1]; listed as 12 g rex (+)-TBZ iii): 16.7 μm
- D50 (μm) ([1]; listed as 12 g rex (+)-TBZ iii): 38 μm
- D90 (μm) ([1]; listed as 12 g rex (+)-TBZ iii): 76 μm
- D10 (μm) ([1]; listed as Jet milled (+)-TBZ): 2.5 μm
- D50 (μm) ([1]; listed as Jet milled (+)-TBZ): 5.2 μm
- D90 (μm) ([1]; listed as Jet milled (+)-TBZ): 11.8 μm
- D10 (μm) ([1]; listed as Raw (+)-TBZ): 14.3 μm
- D50 (μm) ([1]; listed as Raw (+)-TBZ): 66.5 μm
- D90 (μm) ([1]; listed as Raw (+)-TBZ): 184 μm

Compound: COc1cc2c(cc1OC)[C@H]1C[C@@H](O)[C@H](CC(C)C)CN1CC2 [(−)-(α)-DHTBZ, [−]-α-dihydrotetrabenazine]
- Ki [3]: 71 nM
- Ki (dopamine D2): 180 nM

Compound: COc1cc2c(cc1OC)[C@H]1C[C@@H](OC(=O)[C@@H](N)C(C)C)[C@H](CC(C)C)CN1CC2 [VBZ, L-Valine, (2R,3R,11bR)-1,3,4,6,7,11b-hexahydro-9,10-dimethoxy-3-(2-methylpropyI)-2H-benzo[a]quinolizin-2-yl ester]
- oral bioavailability [2]: ~50%

Compound: CC(C)CCC[C@@H](C)[C@H]1CC[C@H]2[C@@H]3CC=C4C[C@@H](O)CC[C@]4(C)[C@H]3CC[C@]12C [cholesterol]
- solubility in heptane (solubility in heptane): > 10 % by weight
- D50 (μm) [1]: 27.3 μm
- D10 (μm) ([1]; listed as Jet milled CSTR): 0.3 μm
- D50 (μm) ([1]; listed as Jet milled CSTR): 4.6 μm
- D90 (μm) ([1]; listed as Jet milled CSTR): 12 μm
- D10 (μm) ([1]; listed as Raw CSTR): 14.1 μm
- D50 (μm) ([1]; listed as Raw CSTR): 27.3 μm
- D90 (μm) ([1]; listed as Raw CSTR): 48 μm
- D10 (μm) ([1]; listed as Spray dried CSTR): 0.2 μm
- D50 (μm) ([1]; listed as Spray dried CSTR): 2.0 μm
- D90 (μm) ([1]; listed as Spray dried CSTR): 5.0 μm

Compound: (RR, SS)-1,3,4,6,7,11b-hexahydro-9, 10-di(methoxy-d3)-3-(2-methylpropyl) 2H-benzo[a]quinolizin-2-one [(±)-d6-TBZ, reference compound]
- D10 (μm) [1]: 12.3 μm
- D50 (μm) [1]: 25.6 μm
- D90 (μm) [1]: 45.4 μm

Compound: [−]-β-dihydrotetrabenazine [(−)-(β)-DHTBZ]
- Ki [3]: 5.9 nM
- Ki (dopamine D2): 53 nM
